Source: patent US5663335A, “Immunosuppressive compounds and methods” (priority 1996, dated 1997)
Entries after “also recorded” stand apart in the source; their conditions may differ. Counter-ions that a name gives are not always drawn.

Columns and labels:
[1] = system: rat heart allograft rejection (Brown Norway donor, Lewis recipient); assay: Heterotopic cardiac allograft survival (heart transplantation model); assay type: in vivo; settings: for mean survival time: intraperitoneal, daily, day -1 to day 14; for mean survival time compared with underivatized triptolide: equimolar doses: YM-273 0.40 mg/kg, YM-274 0.33 mg/kg, T10 0.25 mg/kg, i.p.
Source text: Treatment of transplantation rejection, in accordance with the invention, is illustrated for rejection of an allograft by the heart transplantation model used in Example 14. The method involves a well-characterized rat model system (Oho and Lindsey, 1969) in which a transplanted heart is attached to the abdominal great vessels of an allogeneic recipient animal, and the viability of the transplanted heart is gauged by the heart's ability to beat in the recipient animal.
In one study, the animals were administered by intraperitoneal injections, from one day preceding to 14 days following heart transplantation, either control solution (5% ethanol, 10 ml/kg), triptolide (designated as T10), or with two concentrations each of YM-273 and YM-274. There were three animals in each group, except for the control group in which five animals were used.
Heterotopic whole heart transplantation was performed according to the standard method (Oho and Lindsey, 1969). The donors (Brown Norway rats, 200-255 g, Charles River, Wilmington, Mass.) and recipients (Adult male Lewis rats, 225-275 g, Charles River) were anesthetized with sodium pentobarbital (40 mg/kg). Following adequate donor anticoagulation using heparin, the heart graft was removed and stored at 4° C. in PhysioSol Irrigation Solution (Abbott Laboratories, N. Chicago, Ill.). The ascending aorta and pulmonary artery were transected, and the vena cava and pulmonary veins were ligated. […] The cold ischemic time of all the cardiac grafts was less than 45 minutes. Graft heartbeat was monitored by abdominal palpation. The period of functional graft survival was measured as the number of days during which cardiac graft contractions could be detected by abdominal palpation. Results were confirmed by direct visualization at laparotomy.
Heart transplant recipient animals prepared as described above (3-5 animals/group) were treated with (i) control solution (5% ethanol, 10 ml/kg), (ii) YM-273 at 0.10 mg/kg and 0.40 mg/kg (FIG. 5A), (iii) YM-274 at 0.084 and 0.33 mg/kg (FIG. 5B), and (iv) and T10 (triptolide) 0.25 mg/kg (FIG. 6). In addition to showing the results for T10, FIG. 6 repeats the results from FIGS. 5A-5B for YM-273 and YM-274 at 0.40 and 0.33 mg/kg, respectively, such that their concentrations were equimolar relative to T10. All compounds were administered intraperitoneally. Treatment started on the day prior to surgery and continuing daily until postoperative day 14, or until the end of allograft survival.

[2] = Stability in water (D2O solution, 1H NMR); assay type: physicochemical; settings: 3 mg/ml, room temperature, Succinate Sodium Salt
Method: Sodium triptolide succinate, designated YM-274, was dissolved in D2 O, and the aqueous solution was stored at room temperature.
A solution of sodium triptolide succinate (YM-274) in D2 O was prepared at a concentration of 3 mg/ml and stored at room temperature. The solution was analyzed by ^1 H NMR at intervals of 1, 3, 5, 15, 45, 90, 180 minutes; 1, 7, 14 days; and 1, 2, 3, and 5 months.

[3] = Cytotoxicity by MTT assay, reported with the IL-1 assay (Table I); assay type: cell-based; settings: mouse, thymocytes, cytotoxic when toxicity greater than 25%
Method: Potential cytotoxicity of the test samples was assessed by the measurement of their effect on the reduction of MTT (3-[4,5-Dimethylthiazole-2-yl]-2,5-diphenyltetrazolium bromide) by cultured cells. MTT, a yellow-colored compound, is reduced by mitochondrial enzymes to form the purple crystalline reduction product formazane, providing an index of cellular respiration on viable cells as well as a sensitive assay for cytotoxicity (Mossmann, 1983).
The cytotoxicity was assessed in cultured human PBMC and mouse thymocytes. A stock solution of MTT (Sigma) at 5 mg/ml in phosphate buffered saline, pH 7.4, was prepared and stored in the dark at 4° C. PBMCs or thymocytes were cultured with various concentrations of test samples in flatbottom 96-well tissue culture plates (Costar) under the same conditions as those described above, but the stimulants (X-35 or IL-1+PHA) were replaced by appropriate medium. Untreated cells with medium alone and without the test samples were used as controls. After incubation for 21 hours, 25 μl of MTT solution was added to each well. After an additional three hours of incubation, the experiment was terminated by addition of a solution of 10% sodium dodecyl sulfate in 0.01N HCl. Following overnight incubation at 37° C. to solubilize the formazane crystals, optical density was determined at 570-650 nm in microplate reader. […]

[4] = Stability in blood serum (TLC); assay type: in vitro ADME; settings: rat serum, 37° C; for stability in serum, 3 to 5 minutes: first 3 to 5 minutes
Method: The stability of triptolide succinate in blood serum was determined as detailed in Example 10B. In this study, a solution of triptolide succinate (YM-262, free acid) in DMSO was mixed with rat serum and incubated at 37° C. The mixture was assayed periodically by thin layer chromatography (TLC) to follow the hydrolysis of the triptolide succinate over time.
A solution of triptolide succinate (free acid; YM-262) in DMSO was made at a concentration of 25 mg/ml, and 0.1 ml of this solution was mixed with 0.5 ml of rat serum. The mixture was incubated at 37° C. Aliquots of the mixture were taken at 1, 3, 5, 15, 45 minutes and 18 hours and analyzed by thin layer chromatography (TLC). The TLC plates were developed in 1:5 CH2 CI2 /Et2 O. After development, the plates were treated with iodine vapor and examined under a UV lamp. Triptolide and triptolide succinate were used as reference compounds (Rf =0.60), and 0.45, respectively).

CC(C)C12OC1C1OC13C1(C)CCC4=C(COC4=O)C1CC1OC13C2OC(=O)CCC(=O)O (stereo not drawn) [YM-274, Triptolide Succinate Sodium Salt]
mean survival time ([1]; 0.0837 mg/kg): 10 days | mean survival time compared with underivatized triptolide ([1]; Succinate Sodium Salt): substantially better | stability in D2O, five months ([2]; five months): Some decomposition was apparent after 5 months; also recorded: some decomposition was observed | stability in D2O, up to three months ([2]; three months): no appreciable change in the NMR spectrum during the first three months; also recorded: unchanged after three months in solution

CC(C)C12OC1C1OC13C1(C)CCC4=C(COC4=O)C1CC1OC13C2OC(=O)CCC(=O)O (stereo not drawn) [YM-273, Triptolide Succinate Tris Salt]
mean survival time ([1]; 0.1 mg/kg): 7 days | mean survival time ([1]; 0.4 mg/kg): 24 days | mean survival time compared with underivatized triptolide [1]: somewhat better

CC(C)C12OC1C1OC13C1(C)CCC4=C(COC4=O)C1CC1OC13C2OC(=O)CCC(=O)O (stereo not drawn) [YM-262, Triptolide Succinate]
MCC [3]: > 12.5 µg/mL | time for hydrolysis of the triptolide ester to free triptolide in serum [4]: less than an hour | stability in serum, 15 minutes ([4]; 15 minutes): the triptolide succinate spot was gone | stability in serum, 3 to 5 minutes [4]: most of the triptolide succinate remained | stability in serum, 3 to 5 minutes ([4]; listed as triptolide succinate): only triptolide succinate was detected by TLC
